We go through two molecules from patent US20050009759A1 (priority 2001, published 2005).

pIC50: −log10 of the molar value. In brackets after ≈: the same amount, converted by molar mass. Where two headings read alike, the source gives them in different places.

A short description of one series: Solubility in water. The note with it: for solubility: water, in water / aqueous solvents. Format: physicochemical.
In another series the test system is L1210 cells. In words: In vitro cytotoxicity, microculture tetrazolium assay (MTA). The class given is cell-based. As to conditions: Mus musculus. As for the experimental part:
Cytotoxicity was tested against L1210 (mouse leukemic cell line) cells using the MTA assay.
L1210 cells were cultivated in RPMI 1640 medium (Gibco) supplemented with 10% fetal calf serum, 2 mM L-glutaine, 100 units/mL penicillin, 100 µg/mL streptomycin, and 10 mM HEPES buffer (pH=7.4). Cytotoxicity was measured by the microculture tetrazolium assay (MTA). Cells were exposed to graded concentrations of drug (nine serial dilutions in triplicate) for 48 h. Results are expressed as IC50, the concentration which reduced by 50% the optical density of treated cells with respect to the optical density of untreated controls.

Series [1] can be described thus: Stability in phosphate buffer solution followed by HPLC. As to conditions: phosphate buffer pH 7 (0.02 M, pH 7.2), 37° C. Format: physicochemical. As for the experimental part:
The stability of 1a was followed by HPLC measurements in buffer solution at pH 7 for 24 hours. More than 90% of the prodrug was recovered after that time, meaning that the prodrug 1a is stable in vitro.
(§1) Good separation in a short delay was obtained with a reversed-phase Phenyl analytical column (Spherisorb 250×4,6) using isocratic conditions (1 mL/min) of 60% phosphate buffer (0.02 M, pH 3) and 40% acetonitrile with UV detection at 254 nm. Using these conditions the retention time of etoposide, prodrug, and cyclized spacer were 4.9, 3.4, 5.8. min., respectively.
A solution of […] of prodrug 1a in 0.02 M phosphate buffer (pH 7.2) was incubated for various times at 37° C. Aliquots (100 μL) were taken at various times and analyzed by HPLC after dilution with eluent (300 μL).

Series [2] deals with E. coli β-D-glucuronidase (Escherichia coli, UniProt P05804). Put plainly: Enzymatic cleavage by E. coli β-D-glucuronidase (kinetics of drug release, HPLC). Format: biochemical. The note with it: E. coli β-D-glucuronidase in phosphate buffer; 500 μg/mL prodrug, 20 μg/mL E. coli β-D-glucuronidase, phosphate buffer pH 7.2, 37° C. As for the experimental part: Prodrug 1a (500 μg/mp) was incubated with E. coli β-D-glucuronidase (20 μ/mL). Aliquot samples were analysed by IPLC at different times (FIG. 1: Enzymatic cleavage of prodrug 1a).
Sequence of E. coli β-D-glucuronidase (P05804 whole entry): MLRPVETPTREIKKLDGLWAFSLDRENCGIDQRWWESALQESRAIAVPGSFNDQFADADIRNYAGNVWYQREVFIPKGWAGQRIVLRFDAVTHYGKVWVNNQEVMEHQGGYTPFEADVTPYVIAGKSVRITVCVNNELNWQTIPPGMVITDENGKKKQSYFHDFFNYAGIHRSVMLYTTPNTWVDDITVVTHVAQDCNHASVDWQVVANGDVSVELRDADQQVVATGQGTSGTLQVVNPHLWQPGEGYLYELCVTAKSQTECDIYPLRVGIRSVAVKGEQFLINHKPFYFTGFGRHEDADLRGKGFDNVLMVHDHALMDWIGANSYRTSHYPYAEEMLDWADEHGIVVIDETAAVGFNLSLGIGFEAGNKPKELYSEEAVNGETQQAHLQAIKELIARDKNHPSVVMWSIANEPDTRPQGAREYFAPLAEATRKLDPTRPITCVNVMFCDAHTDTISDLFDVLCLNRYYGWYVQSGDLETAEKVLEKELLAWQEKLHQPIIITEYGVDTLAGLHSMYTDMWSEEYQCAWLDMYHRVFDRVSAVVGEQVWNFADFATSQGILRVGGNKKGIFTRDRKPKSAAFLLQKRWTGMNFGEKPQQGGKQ
as §1
Hydrolysis was investigated by incubating a solution of 500 μg/mL of prodrug 3 and 20 μg/mL of E. coli β-D-glucuronidase in 0.02 M phosphate buffer (pH 7.2) at 37° C. Aliquots (100 μl) were taken at various times and analyzed by HPLC after dilution with 300 μl of eluent.

For the molecule `COc1cc([C@@H]2c3cc4c(cc3[C@@H](O[C@@H]3O[C@@H]5CO[C@@H](C)O[C@H]5[C@H](O)[C@H]3O)[C@H]3COC(=O)[C@H]23)OCO4)cc(OC)c1O` [etoposide, reference compound], the concentration in solution in the series “Solubility in water” (solubility) came to 0.1 mg/mL (≈ 0.17 mM). Besides, the negative logarithm of the IC50 (pIC50) (commonly −log10 of the IC50, conventionally taken in molar units) in the series with L1210 cells (L1210 cell line, 48 h exposure, without enzyme, read-out: IC50) is 6.08.
With `COc1cc([C@@H]2c3cc4c(cc3C(OC3OC5COC(C)O[C@H]5C(O)[C@@H]3O)[C@H]3COC(=O)[C@H]23)OCO4)cc(OC)c1OC(=O)N(C)c1cc([N+](=O)[O-])ccc1O[C@@H]1OC(C(=O)O)[C@@H](O)C(O)C1O` (stereo partly drawn) [prodrug 1a], the melting point (in general, the temperature, or range, at which the solid turns liquid) stood at 186 °C. Also, the “fold more soluble than the corresponding drug” value in “Solubility in water” (in water, comparable conditions, versus etoposide) is recorded as “approximately 200 fold”. Also, in “Solubility in water”, the solubility (commonly the concentration that dissolves in the medium under given conditions) is approximately 20 mg/mL (≈ 20.9 mM). The molecule also had a negative-log IC50 (pIC50) in the series on L1210 cells (L1210, 48 h) of 4.30. The pIC50 with L1210 cells (L1210, read-out: IC50 after hydrolysis by β-glucuronidase) was 6.03. The “prodrug recovered/remaining after 24 hours” value in series [1] was “More than 90%”. In addition, in series [2], the half-life (in general, how long it takes for the measured level to halve) at 500 μg/mL was less than 25 min.
